Patent US10168342B2, “Lipid probes and uses thereof” (THE SCRIPPS RESEARCH INSTITUTE, priority 2015, dated 2019)

Experiments:
Assay in all cases: SILAC MS mapping of lipid probe targets (probe-versus-No UV, probe-versus-probe) in Neuro2a cells
[1] = target: T1, lipid-binding proteins in Neuro2a cells (Mus musculus, UniProt Q99KJ8); type: cell-based; details: protein Dctn2, AEA-DA probe, No UV control
T1 construct: endogenous in cells; host or cells: Neuro2a

[2] = target: T2, lipid-binding proteins in Neuro2a cells (Mus musculus, UniProt Q61207); type: cell-based; details: AEA-DA probe vs NoUV
T2 construct: endogenous in cells; host or cells: Neuro2a

[3] = target: T3, lipid-binding proteins in Neuro2a cells (Mus musculus, UniProt Q91V01); type: cell-based; details: AEA-DA probe vs NoUV
T3 construct: endogenous in cells; host or cells: Neuro2a

[4] = target: T4, lipid-binding proteins in Neuro2a cells (Mus musculus, UniProt Q8R2Y0); type: cell-based; details: AEA-DA probe vs NoUV
T4 construct: endogenous in cells; host or cells: Neuro2a

[5] = target: T5, lipid-binding proteins in Neuro2a cells (Mus musculus, UniProt Q8VCB1); type: cell-based; details: AEA-DA probe vs NoUV
T5 construct: endogenous in cells; host or cells: Neuro2a

[6] = target: T6, lipid-binding proteins in Neuro2a cells (Mus musculus, UniProt Q9CQ85); type: cell-based; details: AEA-DA probe vs NoUV
T6 construct: endogenous in cells; host or cells: Neuro2a

[7] = target: T7, lipid-binding proteins in Neuro2a cells (Mus musculus, UniProt Q8BHC4); type: cell-based; details: AEA-DA probe vs NoUV
T7 construct: endogenous in cells; host or cells: Neuro2a

[8] = target: T8, lipid-binding proteins in Neuro2a cells (Mus musculus, UniProt Q62465); type: cell-based; details: AEA-DA probe vs NoUV
T8 construct: endogenous in cells; host or cells: Neuro2a

[9] = target: T9, lipid-binding proteins in Neuro2a cells (Mus musculus, UniProt Q60930); type: cell-based; details: AEA-DA probe vs NoUV
T9 construct: endogenous in cells; host or cells: Neuro2a

[10] = target: T10, lipid-binding proteins in Neuro2a cells (Mus musculus, UniProt Q505D7); type: cell-based; details: AEA-DA probe vs NoUV
T10 construct: endogenous in cells; host or cells: Neuro2a

[11] = target: T11, lipid-binding proteins in Neuro2a cells (Mus musculus, UniProt Q3KNM2); type: cell-based; details: AEA-DA probe vs NoUV
T11 construct: endogenous in cells; host or cells: Neuro2a

[12] = target: T12, lipid-binding proteins in Neuro2a cells (Mus musculus, UniProt Q91VM5); type: cell-based; details: protein Rbmxl1, AEA-DA probe, No UV control
T12 construct: endogenous in cells; host or cells: Neuro2a

[13] = target: T13, lipid-binding proteins in Neuro2a cells (Mus musculus, UniProt Q3UV70); type: cell-based; details: protein Pdp1, AEA-DA probe, No UV control
T13 construct: endogenous in cells; host or cells: Neuro2a

[14] = target: T14, lipid-binding proteins in Neuro2a cells (Mus musculus, UniProt Q9R1J0); type: cell-based; details: AEA-DA probe vs NoUV
T14 construct: endogenous in cells; host or cells: Neuro2a

[15] = target: T15, lipid-binding proteins in Neuro2a cells (Mus musculus, UniProt P97300); type: cell-based; details: AEA-DA probe vs NoUV
T15 construct: endogenous in cells; host or cells: Neuro2a

[16] = target: T16, lipid-binding proteins in Neuro2a cells (Mus musculus, UniProt P45878); type: cell-based; details: protein Fkbp2, AEA-DA probe, No UV control
T16 construct: endogenous in cells; host or cells: Neuro2a

[17] = target: T17, lipid-binding proteins in Neuro2a cells (Mus musculus, UniProt Q61712); type: cell-based; details: AEA-DA probe vs NoUV
T17 construct: endogenous in cells; host or cells: Neuro2a

[18] = target: T18, lipid-binding proteins in Neuro2a cells (Mus musculus, UniProt Q8VCX5); type: cell-based; details: protein Micu1, AEA-DA probe, No UV control
T18 construct: endogenous in cells; host or cells: Neuro2a

[19] = test system: lipid-binding proteins in Neuro2a cells; type: cell-based, mouse; details: AEA-DA probe vs NoUV
[20] = target: T19, lipid-binding proteins in Neuro2a cells (Mus musculus, UniProt Q8BJ03); type: cell-based; details: protein Cox15, AEA-DA probe, No UV control
T19 construct: endogenous in cells; host or cells: Neuro2a

[21] = target: T20, lipid-binding proteins in Neuro2a cells (Mus musculus, UniProt Q924D0); type: cell-based; details: protein Rtn4ip1, AEA-DA probe, No UV control
T20 construct: endogenous in cells; host or cells: Neuro2a

[22] = target: T21, lipid-binding proteins in Neuro2a cells (Mus musculus, UniProt Q80UU9); type: cell-based; details: AEA-DA probe vs NoUV
T21 construct: endogenous in cells; host or cells: Neuro2a

[23] = target: T22, lipid-binding proteins in Neuro2a cells (Mus musculus, UniProt O70252); type: cell-based; details: AEA-DA probe vs NoUV
T22 construct: endogenous in cells; host or cells: Neuro2a

[24] = target: T23, lipid-binding proteins in Neuro2a cells (Mus musculus, UniProt O08579); type: cell-based; details: AEA-DA probe vs NoUV
T23 construct: endogenous in cells; host or cells: Neuro2a

[25] = target: T24, lipid-binding proteins in Neuro2a cells (Mus musculus, UniProt P21619); type: cell-based; details: protein Lmnb2, AEA-DA probe, No UV control
T24 construct: endogenous in cells; host or cells: Neuro2a

[26] = target: T25, lipid-binding proteins in Neuro2a cells (Mus musculus, UniProt Q99JY4); type: cell-based; details: AEA-DA probe vs NoUV
T25 construct: endogenous in cells; host or cells: Neuro2a

[27] = target: T26, lipid-binding proteins in Neuro2a cells (Mus musculus, UniProt Q924Z4); type: cell-based; details: AEA-DA probe vs NoUV
T26 construct: endogenous in cells; host or cells: Neuro2a

[28] = target: T27, lipid-binding proteins in Neuro2a cells (Mus musculus, UniProt Q8BIJ6); type: cell-based; details: protein Iars2, AEA-DA probe, No UV control
T27 construct: endogenous in cells; host or cells: Neuro2a

[29] = target: T28, lipid-binding proteins in Neuro2a cells (Mus musculus, UniProt O70503); type: cell-based; details: AEA-DA probe vs NoUV
T28 construct: endogenous in cells; host or cells: Neuro2a

[30] = target: T29, lipid-binding proteins in Neuro2a cells (Mus musculus, UniProt Q60932); type: cell-based; details: AEA-DA probe vs NoUV
T29 construct: endogenous in cells; host or cells: Neuro2a

[31] = target: T30, lipid-binding proteins in Neuro2a cells (Mus musculus, UniProt Q9Z0R9); type: cell-based; details: AEA-DA probe vs NoUV
T30 construct: endogenous in cells; host or cells: Neuro2a

[32] = target: T31, lipid-binding proteins in Neuro2a cells (Mus musculus, UniProt Q8R0X7); type: cell-based; details: AEA-DA probe vs NoUV
T31 construct: endogenous in cells; host or cells: Neuro2a

[33] = target: T32, lipid-binding proteins in Neuro2a cells (Mus musculus, UniProt Q9R0P6); type: cell-based; details: AEA-DA probe vs NoUV
T32 construct: endogenous in cells; host or cells: Neuro2a

[34] = target: T33, lipid-binding proteins in Neuro2a cells (Mus musculus, UniProt P52019); type: cell-based; details: AEA-DA probe vs NoUV
T33 construct: endogenous in cells; host or cells: Neuro2a

[35] = target: T34, lipid-binding proteins in Neuro2a cells (Mus musculus, UniProt Q78IK4); type: cell-based; details: protein Apool, AEA-DA probe, No UV control
T34 construct: endogenous in cells; host or cells: Neuro2a
T34 sequence (Q78IK4 28-265): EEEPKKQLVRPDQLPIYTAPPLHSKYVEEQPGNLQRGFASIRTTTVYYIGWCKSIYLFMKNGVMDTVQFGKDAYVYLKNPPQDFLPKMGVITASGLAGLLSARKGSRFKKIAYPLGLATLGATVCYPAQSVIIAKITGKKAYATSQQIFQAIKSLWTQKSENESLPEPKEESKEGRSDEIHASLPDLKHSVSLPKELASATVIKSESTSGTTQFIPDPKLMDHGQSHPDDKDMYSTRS

T22 sequence (O70252 whole entry): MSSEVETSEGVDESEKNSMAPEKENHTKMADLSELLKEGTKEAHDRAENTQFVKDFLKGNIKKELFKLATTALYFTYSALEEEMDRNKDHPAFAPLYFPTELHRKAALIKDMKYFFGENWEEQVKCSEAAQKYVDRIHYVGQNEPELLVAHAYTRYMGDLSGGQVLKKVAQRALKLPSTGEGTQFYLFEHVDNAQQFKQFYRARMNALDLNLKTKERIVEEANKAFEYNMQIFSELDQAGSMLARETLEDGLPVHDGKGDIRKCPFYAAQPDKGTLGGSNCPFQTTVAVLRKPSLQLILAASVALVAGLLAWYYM
T31 sequence (Q8R0X7 whole entry): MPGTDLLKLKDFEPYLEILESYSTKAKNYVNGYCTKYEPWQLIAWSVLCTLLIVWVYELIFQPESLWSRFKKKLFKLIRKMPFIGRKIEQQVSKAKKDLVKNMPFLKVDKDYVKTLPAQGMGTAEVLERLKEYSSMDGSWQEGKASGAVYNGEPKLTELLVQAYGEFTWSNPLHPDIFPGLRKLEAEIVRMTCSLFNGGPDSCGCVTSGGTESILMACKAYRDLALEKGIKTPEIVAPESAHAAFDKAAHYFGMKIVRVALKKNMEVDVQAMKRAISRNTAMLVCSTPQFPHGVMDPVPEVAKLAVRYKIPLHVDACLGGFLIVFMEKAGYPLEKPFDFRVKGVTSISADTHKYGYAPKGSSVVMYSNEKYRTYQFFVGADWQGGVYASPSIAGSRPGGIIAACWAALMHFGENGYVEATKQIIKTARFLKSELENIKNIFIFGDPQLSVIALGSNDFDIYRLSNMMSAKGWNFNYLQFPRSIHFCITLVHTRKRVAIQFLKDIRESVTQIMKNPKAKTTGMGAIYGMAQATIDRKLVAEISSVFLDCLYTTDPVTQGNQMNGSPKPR
T3 sequence (Q91V01 whole entry): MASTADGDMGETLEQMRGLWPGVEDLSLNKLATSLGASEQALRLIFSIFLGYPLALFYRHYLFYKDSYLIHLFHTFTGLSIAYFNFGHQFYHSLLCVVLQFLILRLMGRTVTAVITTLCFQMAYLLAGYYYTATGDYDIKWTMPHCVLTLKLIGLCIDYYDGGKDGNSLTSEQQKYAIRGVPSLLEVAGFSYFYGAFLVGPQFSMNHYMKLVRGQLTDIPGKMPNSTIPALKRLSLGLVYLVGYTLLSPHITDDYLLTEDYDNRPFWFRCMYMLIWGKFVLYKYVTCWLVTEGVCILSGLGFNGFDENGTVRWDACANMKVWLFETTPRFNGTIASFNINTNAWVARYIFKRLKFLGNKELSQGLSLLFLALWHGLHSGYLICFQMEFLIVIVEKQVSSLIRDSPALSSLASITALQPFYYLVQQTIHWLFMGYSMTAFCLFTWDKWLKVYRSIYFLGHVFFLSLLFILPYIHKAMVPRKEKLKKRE
T9 sequence (Q60930 whole entry): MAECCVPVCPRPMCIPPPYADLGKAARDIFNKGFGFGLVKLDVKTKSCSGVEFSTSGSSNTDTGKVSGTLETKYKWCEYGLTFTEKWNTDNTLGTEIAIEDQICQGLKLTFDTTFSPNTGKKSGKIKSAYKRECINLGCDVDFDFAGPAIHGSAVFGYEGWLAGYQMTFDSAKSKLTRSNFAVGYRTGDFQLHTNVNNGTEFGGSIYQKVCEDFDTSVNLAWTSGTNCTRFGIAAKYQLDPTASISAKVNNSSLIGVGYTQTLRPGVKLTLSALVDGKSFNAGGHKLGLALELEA
T19 sequence (Q8BJ03 whole entry): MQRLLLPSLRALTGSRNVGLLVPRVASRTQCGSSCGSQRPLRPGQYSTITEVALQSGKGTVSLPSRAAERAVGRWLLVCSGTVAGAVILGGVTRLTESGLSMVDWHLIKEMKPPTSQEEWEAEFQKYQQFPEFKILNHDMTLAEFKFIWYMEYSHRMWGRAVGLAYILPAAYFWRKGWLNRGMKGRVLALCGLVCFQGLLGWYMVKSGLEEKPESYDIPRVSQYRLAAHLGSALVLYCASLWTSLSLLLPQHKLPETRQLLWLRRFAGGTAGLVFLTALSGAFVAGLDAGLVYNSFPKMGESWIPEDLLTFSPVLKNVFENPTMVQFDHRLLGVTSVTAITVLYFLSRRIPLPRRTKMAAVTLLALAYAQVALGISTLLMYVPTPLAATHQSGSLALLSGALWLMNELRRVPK
T4 sequence (Q8R2Y0 whole entry): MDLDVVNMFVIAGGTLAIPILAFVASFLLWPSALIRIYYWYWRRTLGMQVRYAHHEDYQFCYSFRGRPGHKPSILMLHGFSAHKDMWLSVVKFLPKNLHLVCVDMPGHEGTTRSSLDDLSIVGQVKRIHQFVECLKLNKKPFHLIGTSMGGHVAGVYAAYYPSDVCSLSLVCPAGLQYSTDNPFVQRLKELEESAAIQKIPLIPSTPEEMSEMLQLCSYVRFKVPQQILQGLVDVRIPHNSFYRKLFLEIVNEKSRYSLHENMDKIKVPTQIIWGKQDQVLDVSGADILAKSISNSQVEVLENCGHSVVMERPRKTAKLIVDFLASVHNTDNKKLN
T6 sequence (Q9CQ85 whole entry): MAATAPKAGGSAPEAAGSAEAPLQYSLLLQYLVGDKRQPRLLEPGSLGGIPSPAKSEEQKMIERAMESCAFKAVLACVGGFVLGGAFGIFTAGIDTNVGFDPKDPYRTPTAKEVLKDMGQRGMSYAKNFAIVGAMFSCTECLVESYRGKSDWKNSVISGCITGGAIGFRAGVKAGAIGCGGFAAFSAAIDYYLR
T23 sequence (O08579 whole entry): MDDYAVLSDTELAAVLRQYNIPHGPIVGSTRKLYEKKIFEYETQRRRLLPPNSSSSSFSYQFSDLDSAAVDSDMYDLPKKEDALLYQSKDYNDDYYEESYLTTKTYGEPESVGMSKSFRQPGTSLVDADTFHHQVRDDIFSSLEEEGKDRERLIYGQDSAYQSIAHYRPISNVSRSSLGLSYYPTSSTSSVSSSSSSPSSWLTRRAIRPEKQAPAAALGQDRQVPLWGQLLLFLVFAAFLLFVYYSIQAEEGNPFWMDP
T27 sequence (Q8BIJ6 49-1012): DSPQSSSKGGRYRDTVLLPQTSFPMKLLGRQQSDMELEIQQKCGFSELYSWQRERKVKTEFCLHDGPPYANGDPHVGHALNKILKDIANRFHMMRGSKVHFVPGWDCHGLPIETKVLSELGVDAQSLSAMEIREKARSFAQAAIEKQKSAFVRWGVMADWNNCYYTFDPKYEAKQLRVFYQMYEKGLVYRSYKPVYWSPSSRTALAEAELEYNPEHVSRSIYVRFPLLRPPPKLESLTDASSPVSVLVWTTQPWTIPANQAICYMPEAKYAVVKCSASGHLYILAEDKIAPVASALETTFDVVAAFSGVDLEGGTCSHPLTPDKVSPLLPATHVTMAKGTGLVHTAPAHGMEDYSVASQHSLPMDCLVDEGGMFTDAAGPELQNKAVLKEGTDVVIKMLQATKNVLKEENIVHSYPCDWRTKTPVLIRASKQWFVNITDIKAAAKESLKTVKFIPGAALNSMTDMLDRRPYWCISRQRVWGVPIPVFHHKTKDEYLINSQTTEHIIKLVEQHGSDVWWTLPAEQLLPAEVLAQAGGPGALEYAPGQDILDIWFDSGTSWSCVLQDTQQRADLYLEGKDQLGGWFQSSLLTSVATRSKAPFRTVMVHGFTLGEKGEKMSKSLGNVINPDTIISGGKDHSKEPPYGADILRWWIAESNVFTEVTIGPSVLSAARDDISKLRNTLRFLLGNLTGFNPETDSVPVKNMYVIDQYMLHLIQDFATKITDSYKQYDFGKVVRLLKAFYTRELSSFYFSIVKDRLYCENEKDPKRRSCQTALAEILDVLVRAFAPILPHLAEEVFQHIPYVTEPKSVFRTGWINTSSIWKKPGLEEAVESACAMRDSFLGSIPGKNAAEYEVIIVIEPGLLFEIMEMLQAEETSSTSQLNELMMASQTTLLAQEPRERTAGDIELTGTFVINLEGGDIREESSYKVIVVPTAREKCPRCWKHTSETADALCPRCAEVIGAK
T24 sequence (P21619 whole entry): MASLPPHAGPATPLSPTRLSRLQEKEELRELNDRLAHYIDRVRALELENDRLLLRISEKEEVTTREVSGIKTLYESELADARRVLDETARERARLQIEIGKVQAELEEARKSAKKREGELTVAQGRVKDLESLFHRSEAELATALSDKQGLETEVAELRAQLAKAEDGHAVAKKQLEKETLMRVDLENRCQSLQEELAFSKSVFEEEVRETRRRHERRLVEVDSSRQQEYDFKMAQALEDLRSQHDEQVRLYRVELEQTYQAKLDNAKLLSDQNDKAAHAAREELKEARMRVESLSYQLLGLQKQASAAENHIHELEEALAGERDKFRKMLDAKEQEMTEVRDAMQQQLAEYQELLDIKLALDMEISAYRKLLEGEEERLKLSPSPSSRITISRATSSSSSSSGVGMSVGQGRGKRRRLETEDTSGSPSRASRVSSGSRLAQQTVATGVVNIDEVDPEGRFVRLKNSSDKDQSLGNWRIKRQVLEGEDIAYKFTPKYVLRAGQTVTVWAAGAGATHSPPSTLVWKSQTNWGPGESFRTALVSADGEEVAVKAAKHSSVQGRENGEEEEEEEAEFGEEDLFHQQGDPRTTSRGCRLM
T16 sequence (P45878 23-140): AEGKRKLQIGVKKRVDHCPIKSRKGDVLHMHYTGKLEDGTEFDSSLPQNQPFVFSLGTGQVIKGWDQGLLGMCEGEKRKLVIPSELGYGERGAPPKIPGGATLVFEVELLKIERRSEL

In the case of `C#CCCCC1(CC/C=C\C/C=C\C/C=C\CCCC(=O)NCCO)N=N1` [AEA-DA, (5Z,8Z,11Z)-N-(2-hydroxyethyl)-14-(3-(pent-4-yn-1-yl)-3H-diazirin-3-yl)tetradeca-5,8,11-trienamide], the “SILAC ratio, AEA-DA probe versus No UV” value [1] is reported as 11.6, the “SILAC ratio, PSAP (P07602)” value [2] is reported as 20.0 and the “SILAC ratio, LPCAT3 (Q6P1A2)” value [3] is reported as 18.7. The “SILAC ratio, ABHD6 (Q8R2Y0)” value [4] was 20.0, the “SILAC ratio, TMEM48 (Q8VCB1)” value [5] was 14.5 and the “SILAC ratio, TIMM22 (Q9CQ85)” value [6] was 13.6. The “SILAC ratio, DCAKD (Q8BHC4)” value [7] was 9.0, the “SILAC ratio, VAT1 (Q99536)” value [8] was 4.4 and the “SILAC ratio, VDAC2 (P45880)” value [9] was 16.5. The “SILAC ratio, OPA3 (Q505D7)” value [10] was 20.0, the “SILAC ratio, MARCH5 (Q3KNM2)” value [11] was 20.0 and the “SILAC ratio, AEA-DA probe versus No UV” value [12] was 6.0. For the same molecule, the “SILAC ratio, AEA-DA probe versus No UV” value [13] was 20.0, the “SILAC ratio, NSDHL (Q15738)” value [14] was 9.4 and the “SILAC ratio, NPTN (Q9Y639)” value [15] was 17.4. For the same molecule, the “SILAC ratio, AEA-DA probe versus No UV” value [16] was 5.6, the “SILAC ratio, DNAJC1 (Q96KC8)” value [17] was 20.0 and the “SILAC ratio, AEA-DA probe versus No UV” value [18] was 20.0. For the same molecule, the “SILAC ratio, GM20425 (E9Q035)” value [19] was 16.5, the “SILAC ratio, AEA-DA probe versus No UV” value [20] was 12.3 and the “SILAC ratio, AEA-DA probe versus No UV” value [21] was 15.1. The “SILAC ratio, PGRMC2 (Q80UU9)” value [22] was 16.3, the “SILAC ratio, HMOX2 (P30519)” value [23] was 4.0 and the “SILAC ratio, EMD (O08579)” value [24] was 20.0. The “SILAC ratio, AEA-DA probe versus No UV” value [25] was 20.0, the “SILAC ratio, TRABD (Q99JY4)” value [26] was 12.0 and the “SILAC ratio, CERS2 (Q924Z4)” value [27] was 17.1. The “SILAC ratio, AEA-DA probe versus No UV” value [28] was 20.0, the “SILAC ratio, HSD17B12 (Q53GQ0)” value [29] was 15.3 and the “SILAC ratio, VDAC1 (P21796)” value [30] was 20.0. For the same molecule, the “SILAC ratio, FADS2 (Q9Z0R9)” value [31] was 10.5, the “SILAC ratio, SGPL1 (O95470)” value [32] was 20.0 and the “SILAC ratio, SEC11A (P67812)” value [33] was 5.4. The “SILAC ratio, SQLE (Q14534)” value [34] was 5.0 and the “SILAC ratio, AEA-DA probe versus No UV” value [35] was 6.4.
